This note sets out measurements from patent publication US7973061B2, “Anaplastic lymphoma kinase modulators and methods of use” (Exelixis, Inc., priority 2004, dated 2011).

Molecules are shown by their SMILES.

This assay addresses T1, ALK (baculovirus expressed human ALK kinase domain F1098-K1410) (Homo sapiens, UniProt Q9UM73).
T1 construct: human ALK kinase domain F1098-K1410; made in house
In words: biochemical. As to conditions: 1 μM ATP, 4 μM poly-AEKY, 12 nM ALK, 2 hours at ambient temperature; read-out: ALK IC50. The method in brief: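 Inhibitors were tested at 10 concentrations, and IC50 was derived from a sigmoidal fit (Min, Max, Hill slope). Kinase activity was measured as percent ATP left after a 2 h reaction at room temperature, detected by luciferase-luciferin chemiluminescence. The ATP level was set close to KM for the ALK kinase domain F1098-K1410.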

T1 sequence (Q9UM73 1098-1410): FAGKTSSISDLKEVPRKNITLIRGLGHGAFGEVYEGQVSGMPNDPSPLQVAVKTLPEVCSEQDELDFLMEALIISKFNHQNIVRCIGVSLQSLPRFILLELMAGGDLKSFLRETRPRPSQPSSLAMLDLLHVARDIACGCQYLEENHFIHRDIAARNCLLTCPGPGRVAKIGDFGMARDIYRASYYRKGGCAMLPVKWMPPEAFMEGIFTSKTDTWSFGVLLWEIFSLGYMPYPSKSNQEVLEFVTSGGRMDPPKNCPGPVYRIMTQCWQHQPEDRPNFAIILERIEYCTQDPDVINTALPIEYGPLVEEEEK

Consider `CC(C)(C)CC(C)(C)NC(=O)c1csc(CNC(=O)COc2ccc(OC(F)(F)F)cc2)n1` [Entry 196, N-(1,1,3,3-tetramethylbutyl)-2-({[({4-[(trifluoromethyl)oxy]phenyl}oxy)acetyl]amino}methyl)-1,3-thiazole-4-carboxamide], for which the concentration for half-maximal inhibition (IC50) (commonly the concentration at which inhibition is half-maximal) lay in the range of 50 to 500 nM.

On to `CC(C)C(C)NC(=O)c1csc(CNC(=O)COc2ccc(OC(F)(F)F)cc2)n1` (stereo not shown) [Entry 197, N-(1,2-dimethylpropyl)-2-({[({4-[(trifluoromethyl)oxy]phenyl}oxy)acetyl]amino}methyl)-1,3-thiazole-4-carboxamide], for which the half-maximal inhibitory concentration (IC50) was in the range of 50 to 500 nM.

`COc1ccccc1CNC(=O)c1csc(CNC(=O)c2cccnc2Oc2ccc(Cl)cc2)n1` [Entry 198, 2-[(4-chlorophenyl)oxy]-N-({4-[({[2-(methyloxy)phenyl]methyl}amino)carbonyl]-1,3-thiazol-2-yl}methyl)pyridine-3-carboxamide]: the IC50 was in the range of 50 to 500 nM.

In the case of `O=C(COc1ccc(OC(F)(F)F)cc1)NCc1nc(C(=O)NC2CCCc3ccccc32)cs1` (stereo not shown) [Entry 199, N-(1,2,3,4-tetrahydronaphthalen-1-yl)-2-({[({4-[(trifluoromethyl)oxy]phenyl}oxy)acetyl]amino}methyl)-1,3-thiazole-4-carboxamide], the half-maximal inhibitory concentration (IC50) lay within 50 to 500 nM.

In the case of `CCCCC(CC)CNC(=O)c1csc(CNC(=O)COc2ccc(OC(F)(F)F)cc2)n1` (stereo not shown) [Entry 200, N-(2-ethylhexyl)-2-({[({4-[(trifluoromethyl)oxy]phenyl}oxy)acetyl]amino}methyl)-1,3-thiazole-4-carboxamide], the IC50 lay within 50 to 500 nM.

On to `O=C(COc1ccc(OC(F)(F)F)cc1)NCc1nc(C(=O)NCCc2ccc(F)cc2)co1` [Entry 201, N-[2-(4-fluorophenyl)ethyl]-2-({[({4-[(trifluoromethyl)oxy]phenyl}oxy)acetyl]amino}methyl)-1,3-oxazole-4-carboxamide], for which the IC50 is 50 to 500 nM.

Regarding `CC(C)C[C@@H](NC(=O)c1csc(CNC(=O)COc2ccc(OC(F)(F)F)cc2)n1)C(N)=O` [Entry 202, N~2~-{[2-({[({4-[(trifluoromethyl)oxy]phenyl}oxy)acetyl]amino}methyl)-1,3-thiazol-4-yl]carbonyl}-D-leucinamide], the half-maximal inhibitory concentration (IC50) fell in the range of 50 to 500 nM.

For the compound `COc1ccccc1CNC(=O)c1coc(CNC(=O)COc2ccc(OC(F)(F)F)cc2)n1` [Entry 203, N-{[2-(methyloxy)phenyl]methyl}-2-({[({4-[(trifluoromethyl)oxy]phenyl}oxy)acetyl]amino}methyl)-1,3-oxazole-4-carboxamide], the IC50 lay within 50 to 500 nM.

Regarding `CC(NC(=O)c1csc(CNC(=O)COc2ccc(OC(F)(F)F)cc2)n1)c1ccc(Br)cc1` (stereo not shown) [Entry 204, N-[1-(4-bromophenyl)ethyl]-2-({[({4-[(trifluoromethyl)oxy]phenyl}oxy)acetyl]amino}methyl)-1,3-thiazole-4-carboxamide], the IC50 lay in the range of 50 to 500 nM.

With `O=C(COc1ccc(OC(F)(F)F)cc1)NCc1nc(C(=O)NCCN2CCOCC2)cs1` [Entry 205, N-(2-morpholin-4-ylethyl)-2-({[({4-[(trifluoromethyl)oxy]phenyl}oxy)acetyl]amino}methyl)-1,3-thiazole-4-carboxamide], the IC50 was in the range of 50 to 500 nM.

Consider `O=C(COc1ccc(OC(F)(F)F)cc1)NCc1nc(C(=O)NCc2ccc(F)cc2)cs1` [Entry 206, N-[(4-fluorophenyl)methyl]-2-({[({4-[(trifluoromethyl)oxy]phenyl}oxy)acetyl]amino}methyl)-1,3-thiazole-4-carboxamide], for which the IC50 is 50 to 500 nM.

For the compound `COc1cc(CCNC(=O)c2coc(CNC(=O)COc3ccc(OC(F)(F)F)cc3)n2)cc(OC)c1` [Entry 207, N-{2-[3,5-bis(methyloxy)phenyl]ethyl}-2-({[({4-[(trifluoromethyl)oxy]phenyl}oxy)acetyl]amino}methyl)-1,3-oxazole-4-carboxamide], the IC50 was 50 to 500 nM.

Turning to `O=C(C/C=C/c1ccccc1)NCc1nc(C(=O)NCCc2cccc(Cl)c2)cs1` [Entry 208, N-[2-(3-chlorophenyl)ethyl]-2-({[(3E)-4-phenylbut-3-enoyl]amino}methyl)-1,3-thiazole-4-carboxamide], the half-inhibitory concentration (IC50) was in the range of 50 to 500 nM.

As for `O=C(COc1ccc(OC(F)(F)F)cc1)NCc1nc(C(=O)NC2CCCCC2)cs1` [Entry 209, N-cyclohexyl-2-({[({4-[(trifluoromethyl)oxy]phenyl}oxy)acetyl]amino}methyl)-1,3-thiazole-4-carboxamide], the concentration for half-maximal inhibition (IC50) fell in the range of 50 to 500 nM.

`CCC(C)CNC(=O)c1csc(CNC(=O)COc2ccc(OC(F)(F)F)cc2)n1` (stereo not shown) [Entry 210, N-(2-methylbutyl)-2-({[({4-[(trifluoromethyl)oxy]phenyl}oxy)acetyl]amino}methyl)-1,3-thiazole-4-carboxamide]: the IC50 was in the range of 50 to 500 nM.

With `Cc1ccc(CCNC(=O)c2coc(CNC(=O)COc3ccc(OC(F)(F)F)cc3)n2)cc1C` [Entry 211, N-[2-(3,4-dimethylphenyl)ethyl]-2-({[({4-[(trifluoromethyl)oxy]phenyl}oxy)acetyl]amino}methyl)-1,3-oxazole-4-carboxamide], the IC50 lay within 50 to 500 nM.

`CC(C)CCCC(C)NC(=O)c1csc(CNC(=O)COc2ccc(OC(F)(F)F)cc2)n1` (stereo not shown) [Entry 212, N-(1,5-dimethylhexyl)-2-({[({4-[(trifluoromethyl)oxy]phenyl}oxy)acetyl]amino}methyl)-1,3-thiazole-4-carboxamide]: the IC50 lay within 50 to 500 nM.

For the compound `O=C(COc1ccc(OC(F)(F)F)cc1)NCc1nc(C(=O)NCCc2ccccc2Oc2ccccc2)cs1` [Entry 213, N-{2-[2-(phenyloxy)phenyl]ethyl}-2-({[({4-[(trifluoromethyl)oxy]phenyl}oxy)acetyl]amino}methyl)-1,3-thiazole-4-carboxamide], the IC50 is 50 to 500 nM.

For `CCCCOc1ccc(NC(=O)NCc2nc(C(=O)NCc3ccccc3OC)cs2)cc1` [Entry 214, 2-{[({[4-(butyloxy)phenyl]amino}carbonyl)amino]methyl}-N-{[2-(methyloxy)phenyl]methyl}-1,3-thiazole-4-carboxamide], the IC50 was in the range of 50 to 500 nM.

Take `O=C(COc1ccc(Cl)cc1)NCc1nc(C(=O)NCCc2ccccc2F)cs1` [Entry 215, 2-[({[(4-chlorophenyl)oxy]acetyl}amino)methyl]-N-[2-(2-fluorophenyl)ethyl]-1,3-thiazole-4-carboxamide]: the IC50 lay in the range of 50 to 500 nM.

With `O=C(COc1ccc(OC(F)(F)F)cc1)NCc1nc(C(=O)NCC2CC2)cs1` [Entry 216, N-(cyclopropylmethyl)-2-({[({4-[(trifluoromethyl)oxy]phenyl}oxy)acetyl]amino}methyl)-1,3-thiazole-4-carboxamide], the IC50 fell in the range of 50 to 500 nM.

Take `O=C(NCc1nc(C(=O)NCCc2cccc(Cl)c2)cs1)N[C@@H]1C[C@H]1c1ccccc1` [Entry 217, N-[2-(3-chlorophenyl)ethyl]-2-{[({[(1R,2S)-2-phenylcyclopropyl]amino}carbonyl)amino]methyl}-1,3-thiazole-4-carboxamide]: the IC50 lay within 50 to 500 nM.

For the compound `O=C(COc1ccc(OC(F)(F)F)cc1)NCc1nc(C(=O)N[C@@H]2CCC[C@H]2OCc2ccccc2)cs1` [Entry 218, N-{(1R,2R)-2-[(phenylmethyl)oxy]cyclopentyl}-2-({[({4-[(trifluoromethyl)oxy]phenyl}oxy)acetyl]amino}methyl)-1,3-thiazole-4-carboxamide], the IC50 was 50 to 500 nM.

For the compound `O=C(COc1ccc(OC(F)(F)F)cc1)NCc1nc(C(=O)NCCc2ccncc2)co1` [Entry 219, N-(2-pyridin-4-ylethyl)-2-({[({4-[(trifluoromethyl)oxy]phenyl}oxy)acetyl]amino}methyl)-1,3-oxazole-4-carboxamide], the IC50 lay in the range of 500 to 2000 nM.

As for `CCCCCCC(C)NC(=O)c1csc(CNC(=O)COc2ccc(OC(F)(F)F)cc2)n1` (stereo not shown) [Entry 220, N-(1-methylheptyl)-2-({[({4-[(trifluoromethyl)oxy]phenyl}oxy)acetyl]amino}methyl)-1,3-thiazole-4-carboxamide], the IC50 was in the range of 500 to 2000 nM.

`CSCC[C@H](NC(=O)c1ccccc1)C(=O)NCc1nc(C(=O)NCCc2cccc(Cl)c2)cs1` [Entry 221, N-{[4-({[2-(3-chlorophenyl)ethyl]amino}carbonyl)-1,3-thiazol-2-yl]methyl}-N~2~-(phenylcarbonyl)methioninamide]: the IC50 was in the range of 500 to 2000 nM.

For the compound `O=C(COc1ccc(OC(F)(F)F)cc1)NCc1nc(C(=O)NC(Cc2ccccc2)c2ccccc2)cs1` (stereo not shown) [Entry 222, N-(1,2-diphenylethyl)-2-({[({4-[(trifluoromethyl)oxy]phenyl}oxy)acetyl]amino}methyl)-1,3-thiazole-4-carboxamide], the IC50 was 500 to 2000 nM.

In the case of `COc1cccc(CNC(=O)c2coc(CNC(=O)COc3ccc(OC(F)(F)F)cc3)n2)c1OC` [Entry 223, N-{[2,3-bis(methyloxy)phenyl]methyl}-2-({[({4-[(trifluoromethyl)oxy]phenyl}oxy)acetyl]amino}methyl)-1,3-oxazole-4-carboxamide], the IC50 is 500 to 2000 nM.

On to `COc1ccc(CCNC(=O)c2coc(CNC(=O)COc3ccc(OC(F)(F)F)cc3)n2)cc1` [Entry 224, N-{2-[4-(methyloxy)phenyl]ethyl}-2-({[({4-[(trifluoromethyl)oxy]phenyl}oxy)acetyl]amino}methyl)-1,3-oxazole-4-carboxamide], for which the IC50 was in the range of 500 to 2000 nM.

For `Cc1ccc(CCNC(=O)c2coc(CNC(=O)COc3ccc(OC(F)(F)F)cc3)n2)cc1` [Entry 225, N-[2-(4-methylphenyl)ethyl]-2-({[({4-[(trifluoromethyl)oxy]phenyl}oxy)acetyl]amino}methyl)-1,3-oxazole-4-carboxamide], the IC50 lay in the range of 500 to 2000 nM.

With `O=C(COc1ccc(OC(F)(F)F)cc1)NCc1nc(C(=O)NCC(c2ccccc2)c2ccccc2)co1` [Entry 226, N-(2,2-diphenylethyl)-2-({[({4-[(trifluoromethyl)oxy]phenyl}oxy)acetyl]amino}methyl)-1,3-oxazole-4-carboxamide], the IC50 lay within 500 to 2000 nM.
